Source: patent US7125990B2, “Imidazolyl derivatives as corticotropin releasing factor inhibitors” (Bristol-Myers Squibb COmpany, priority 2001, dated 2006)

Biological target: T1, CRF1 receptors (Homo sapiens, UniProt P34998)
T1 construct: endogenous in cells; host or cells: IMR-32 cells, transformed with 2.5 µM 5'-bromo-2'-deoxyuridine for 10 days; membrane preparation
T1 sequence (P34998 24-415): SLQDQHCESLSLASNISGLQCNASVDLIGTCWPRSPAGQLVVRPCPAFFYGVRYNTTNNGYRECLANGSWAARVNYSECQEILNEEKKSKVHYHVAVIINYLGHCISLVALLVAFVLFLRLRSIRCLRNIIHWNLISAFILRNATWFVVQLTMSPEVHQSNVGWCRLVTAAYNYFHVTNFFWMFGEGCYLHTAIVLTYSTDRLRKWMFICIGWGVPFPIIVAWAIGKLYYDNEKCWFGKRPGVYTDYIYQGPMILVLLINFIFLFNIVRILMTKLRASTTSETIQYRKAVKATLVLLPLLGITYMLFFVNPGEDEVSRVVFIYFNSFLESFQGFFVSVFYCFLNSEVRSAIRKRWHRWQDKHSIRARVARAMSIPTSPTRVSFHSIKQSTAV
Assay: CRF1 receptor radioligand binding assay ([125I]-oCRF competition, IMR-32 cell membranes)
Conditions: IMR-32 cell membranes, [125I]-oCRF 100 pM; read-out: Ki (CRF-1R)
Outline: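 Buffer: Tris pH 7.2 with MgCl2, BSA, Triton X-100, aprotinin, leupeptin; reaction stopped with ice-cold wash and filtered. Nonspecific binding set with 10 μM oCRF.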

Row | SMILES | Ki [nM]
1 | CCc1nc2n(c1C(=O)N(CCC1CC1)CCC(F)(F)F)CCN2c1c(C)cc(C)cc1C [Example 17, 2-Ethyl-7-(2,4,6-trimethyl-phenyl)-6,7-dihydro-5H-imidazo[1,2-a]imidazole-3-carboxylic acid (2-cyclopropyl-ethyl)-(3,3,3-trifluoro-propyl)-amide] | < 1000
2 | CCN(CCC1CC1)Cc1c(C(F)(F)F)nc2n1CCCN2c1c(C)cc(C)cc1C [Example 88, (2-Cyclopropyl-ethyl)-ethyl-[2-trifluoromethyl-8-(2,4,6-trimethyl-phenyl)-5,6,7,8-tetrahydro-imidazo[1,2-a]pyrimidin-3-ylmethyl]-amine] | < 1000
3 | Cc1cc(C)c(-n2c3ncccc3n3c(CN(CCC(F)(F)F)Cc4ccccc4)c(C(F)(F)F)nc23)c(C)c1 [Example 227, Benzyl-[2-trifluoromethyl-8-(2,4,6-trimethyl-phenyl)-8H-1,3a,7,8-tetraaza-cyclopenta[α]inden-3-ylmethyl]-(3,3,3-trifluoro-propyl)-amine] | < 1000
4 | CCCN(CC(F)(F)F)C(=O)c1c(CC)nc2n1CCN2c1ccc(C(C)C)cc1Br [Example 36, 7-(2-Bromo-4-isopropyl-phenyl)-2-ethyl-6,7-dihydro-5H-imidazo[1,2-a]imidazole-3-carboxylic acid propyl-(2,2,2-trifluoro-ethyl)-amide] | < 1000
5 | C=CCN(CC=C)Cc1c(C(F)(F)F)nc2n1CCCN2c1c(C)cc(C)cc1C [Example 67, Diallyl-[2-trifluoromethyl-8-(2,4,6-trimethyl-phenyl)-5,6,7,8-tetrahydro-imidazo[1,2-a]pyrimidin-3-ylmethyl]-amine] | < 100
6 | CCCN(CC1CC1)C(=O)c1c(CC)nc2n1CCCN2c1c(C)cc(C)cc1C [Example 54, 2-Ethyl-8-(2,4,6-trimethyl-phenyl)-5,6,7,8-tetrahydro-imidazo[1,2-a]pyrimidine-3-carboxylic acid cyclopropylmethyl-propyl-amide] | < 10000
7 | Cc1cc(C)c(N2CCCn3c2nc(C(F)(F)F)c3CN(CCc2ccccc2)CCC(F)(F)F)c(C)c1 [Example 81, Phenethyl-[2-trifluoromethyl-8-(2,4,6-trimethyl-phenyl)-5,6,7,8-tetrahydro-imidazo[1,2-a]pyrimidin-3-ylmethyl]-(3,3,3-trifluoro-propyl)-amine] | < 1000
8 | CCc1nc2n(c1C(=O)N(CC1CC1)CC(F)(F)C(F)(F)F)CCN2c1ccc(C(C)C)cc1Br [Example 37, 7-(2-Bromo-4-isopropyl-phenyl)-2-ethyl-6,7-dihydro-5H-imidazo[1,2-a]imidazole-3-carboxylic acid cyclopropylmethyl-(2,2,3,3,3-pentafluoro-propyl)-amide] | < 1000
9 | CCCN(Cc1cccc(F)c1)C(=O)c1c(CC)nc2n1CCN2c1c(C)cc(C)cc1C [Example 26, 2-Ethyl-7-(2,4,6-trimethyl-phenyl)-6,7-dihydro-5H-imidazo[1,2-a]imidazole-3-carboxylic acid (3-fluoro-benzyl)-propyl-amide] | < 10000
10 | CCN(CCc1ccccc1)Cc1c(C(F)(F)F)nc2n(-c3c(C)cc(C)cc3C)c3ncccc3n12 [Example 218, Ethyl-phenethyl-[2-trifluoromethyl-8-(2,4,6-trimethyl-phenyl)-8H-1,3a,7,8-tetraaza-cyclopenta[α]inden-3-ylmethyl]-amine] | < 1000
11 | CCc1nc2n(c1C(=O)N(CCC(F)(F)F)Cc1ccccc1)CCN2c1c(C)cc(C)cc1C [Example 18, 2-Ethyl-7-(2,4,6-trimethyl-phenyl)-6,7-dihydro-5H-imidazo[1,2-a]imidazole-3-carboxylic acid benzyl-(3,3,3-trifluoro-propyl)-amide] | < 1000
12 | Cc1cc(C)c(N2CCCn3c2nc(C(F)(F)F)c3CN(CC2CC2)CC(F)(F)C(F)(F)F)c(C)c1 [Example 74, Cyclopropylmethyl-(2,2,3,3,3-pentafluoro-propyl)-[2trifluoromethyl-8-(2,4,6-trimethyl-phenyl)-5,6,7,8-tetrahydro-imidazo[1,2-a]pyrimidin-3-ylmethyl]-amine] | < 100
13 | FC(F)(F)CN(Cc1c(C(F)(F)F)nc2n(-c3ccc(Cl)cc3Cl)c3ccccc3n12)CC1CC1 [Example 179, Cyclopropylmethyl-[8-(2,4-dichloro-phenyl)-2-trifluoromethyl-8H-1,3a,8-triaza-cyclopenta[α]inden-3-ylmethyl]-(2,2,2-trifluoro-ethyl)-amine] | < 1000
14 | Cc1cc(C)c(N2CCCn3c2nc(C(F)(F)F)c3CN(CCC2CC2)CC(F)(F)F)c(C)c1 [Example 90, (2-Cyclopropyl-ethyl)-(2,2,2-trifluoro-ethyl)-[2-trifluoromethyl-8-(2,4,6-trimethyl-phenyl)-5,6,7,8-tetrahydro-imidazo[1,2-a]pyrimidin-3-ylmethyl]-amine] | < 1000
15 | Cc1cc(C)c(-n2c(Cl)cn3c(CN(Cc4ccc(F)cc4)CC(F)(F)F)c(C(F)(F)F)nc23)c(C)c1 [Example 332] | < 1000
16 | CCN(Cc1ccccc1)Cc1c(C(F)(F)F)nc2n(-c3c(C)cc(C)cc3C)c3ccccc3n12 [Example 173, Benzyl-ethyl-[2-trifluoromethyl-8-(2,4,6-trimethyl-phenyl)-8H-1,3a,8-triaza-cyclopenta[α]inden-3-ylmethyl]-amine] | < 10000
17 | Cc1cc(C)c(-n2c(Cl)cn3c(CN4CC=CCC4)c(C(F)(F)F)nc23)c(C)c1 [Example 305, 2-Chloro-5-(3,6-dihydro-2H-pyridin-1-ylmethyl)-6-trifluoromethyl-1-(2,4,6-trimethyl-phenyl)-1H-imidazo[1,2-a]imidazole] | < 1000
18 | CCc1nc2n(c1C(=O)N(CC1CC1)CC(F)(F)F)CCN2c1c(C)cc(Cl)cc1Cl [Example 30, 7-(2,4-Dichloro-6-methyl-phenyl)-2-ethyl-6,7-dihydro-5H-imidazo[1,2-a]imidazole-3-carboxylic acid cyclopropylmethyl-(2,2,2-trifluoro-ethyl)-amide] | < 100
19 | CCc1nc2n(c1C(=O)N(CC1CC1)CC(F)(F)F)CCN2c1c(C)cc(C)cc1C [Example 5, 2-Ethyl-7-(2,4,6-trimethyl-phenyl)-6,7-dihydro-5H-imidazo[1,2-a]imidazole-3-carboxylic acid cyclopropylmethyl-(2,2,2-trifluoro-ethyl)-amide] | < 100
20 | Cc1cc(C)c(-n2c3ccccc3n3c(CN(CCC(F)(F)F)CC4CC4)c(C(F)(F)F)nc23)c(C)c1 [Example 152, Cyclopropylmethyl-[2-trifluoromethyl-8-(2,4,6-trimethyl-phenyl)-8H-1,3a,8-triaza-cyclopenta[α]inden-3-ylmethyl]-(3,3,3-trifluoro-propyl)-amine] | < 100
21 | FC(F)(F)CN(Cc1c(C(F)(F)F)nc2n(-c3ccc(Cl)cc3Cl)c3ccccc3n12)CC1CCC1 [Example 185, Cyclobutylmethyl-[8-(2,4-dichloro-phenyl)-2-trifluoromethyl-8H-1,3a,8-triaza-cyclopenta[α]inden-3-ylmethyl]-(2,2,2-trifluoro-ethyl)-amine] | < 10000
22 | CCCN(CC1CC1)C(=O)c1c(C(F)(F)F)nc2n(-c3c(C)cc(C)cc3C)c(Cl)cn12 [Example 302, 6-Chloro-2-trifluoromethyl-7-(2,4,6-trimethyl-phenyl)-7H-imidazo[1,2-a]imidazole-3-carboxylic acid cyclopropylmethyl-propyl-amide] | < 100
23 | CCCN(Cc1c(CC)nc2n(-c3c(C)cc(C)cc3C)c3ccc(F)cc3n12)CC1CC1 [Example 149, Cyclopropylmethyl-[2-ethyl-5-fluoro-8-(2,4,6-trimethyl-phenyl)-8H-1,3a,8-triaza-cyclopenta[α]inden-3-ylmethyl]-propyl-amine] | < 1000
24 | Cc1cc(C)c(-n2c(Cl)cn3c(CN(CCC(F)(F)F)Cc4ccc(Cl)cc4)c(C(F)(F)F)nc23)c(C)c1 [Example 336, (4-Chloro-benzyl)-[6-chloro-2-trifluoromethyl-7-(2,4,6-trimethyl-phenyl)-7H-imidazo[1,2-a]imidazol-3-ylmethyl]-(3,3,3-trifluoro-propyl)-amine] | < 10
